ChEMBL document CHEMBL1131672, “6-(1-Hydroxyalkyl))penam sulfone derivatives as inhibitors of class A and class C beta-lactamases II” (Bioorg Med Chem Lett, 1999)
In brackets after ≈: the same amount, converted by molar mass.

Columns and labels:
[1] = target: Beta-lactamase (Escherichia coli K-12, UniProt P00811); test: Inhibitory activity against AmpC (class C) beta-lactamase
[2] = target: Beta-lactamase TEM (Escherichia coli, UniProt P62593); test: Inhibitory activity against TEM-1 (class A) beta-lactamase
Sequence of Beta-lactamase TEM (P62593 whole entry): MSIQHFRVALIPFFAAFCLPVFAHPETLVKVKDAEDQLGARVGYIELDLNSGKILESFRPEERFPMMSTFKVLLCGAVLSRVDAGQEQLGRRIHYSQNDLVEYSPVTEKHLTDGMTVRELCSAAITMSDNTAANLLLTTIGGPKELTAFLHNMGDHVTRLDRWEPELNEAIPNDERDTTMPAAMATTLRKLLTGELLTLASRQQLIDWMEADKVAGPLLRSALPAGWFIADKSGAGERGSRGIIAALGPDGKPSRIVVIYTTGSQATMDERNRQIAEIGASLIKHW

[3] = tested on: Escherichia coli; test: In vivo inhibitory activity against Escherichia coli in mice; type: functional
[4] = tested on: Escherichia coli; test: In vitro inhibitory activity against Escherichia coli; type: functional
[5] = tested on: Serratia marcescens; test: In vitro inhibitory activity against Serratia marcescens; type: functional
[6] = tested on: Serratia marcescens; test: In vivo inhibitory activity against Serratia marcescens in mice; type: functional

Sequence of Beta-lactamase (P00811 whole entry): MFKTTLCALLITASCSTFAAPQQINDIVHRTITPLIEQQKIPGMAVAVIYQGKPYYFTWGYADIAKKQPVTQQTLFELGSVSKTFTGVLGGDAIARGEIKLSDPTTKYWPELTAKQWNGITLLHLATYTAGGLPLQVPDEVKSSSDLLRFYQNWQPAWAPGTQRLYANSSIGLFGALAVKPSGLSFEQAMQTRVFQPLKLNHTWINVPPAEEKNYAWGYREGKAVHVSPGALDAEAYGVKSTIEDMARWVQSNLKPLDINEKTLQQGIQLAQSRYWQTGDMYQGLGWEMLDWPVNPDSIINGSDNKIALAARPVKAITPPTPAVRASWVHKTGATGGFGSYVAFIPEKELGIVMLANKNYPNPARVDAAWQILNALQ

Row | SMILES | IC50 [1] | IC50 [2] | ED50 [3] | MIC [4] | MIC [5] | ED50 [6]
1 | CC1(C=CC#N)[C@H](C(=O)O)N2C(=O)C[C@H]2S1(=O)=O (single isomer, unassigned) [Ro-481220] | 1130 nM | 42 nM | 15 mg/kg | 4 µg/mL (≈ 14.8 µM) | 4 µg/mL (≈ 14.8 µM) | 82 mg/kg
2 | C[C@]1(/C=C/C#N)[C@H](C(=O)[O-])N2C(=O)[C@@H](CO)[C@H]2S1(=O)=O.[Na+] | 280 nM | – | – | 16 µg/mL | 4 µg/mL | –
3 | C[C@]1(Cn2ccnn2)[C@H](C(=O)[O-])N2C(=O)[C@@H](CO)[C@H]2S1(=O)=O.[Na+] | – | 6 nM | 3.6 mg/kg | 2 µg/mL | 16 µg/mL | 125 mg/kg
4 | C[C@]1(Cn2ccnn2)[C@H](C(=O)[O-])N2C(=O)C[C@H]2S1(=O)=O.[Na+] [TAZOBACTAM SODIUM] | – | – | 7.7 mg/kg | 2 µg/mL | 32 µg/mL | 144 mg/kg
5 | C[C@]1(/C=C\C#N)[C@H](C(=O)[O-])N2C(=O)[C@@H](CO)[C@H]2S1(=O)=O.[Na+] | 270 nM | – | 4 mg/kg | 4 µg/mL | 8 µg/mL | 16 mg/kg
6 | CO/N=C/C1(C)[C@H](C(=O)O)N2C(=O)[C@@H](CO)[C@H]2S1(=O)=O (single isomer, unassigned) | 280 nM | 64 nM | – | 8 µg/mL (≈ 26.1 µM) | 16 µg/mL (≈ 52.2 µM) | –
7 | CCN1CCN(C(=O)N[C@@H](C(=O)N[C@@H]2C(=O)N3[C@@H]2SC(C)(C)[C@@H]3C(=O)O)c2ccccc2)C(=O)C1=O [PIPERACILLIN] | – | – | 256 mg/kg | > 64 µg/mL | 32 µg/mL (≈ 61.8 µM) | 128 mg/kg
